# Residue numbers refer to the chain shown, from its start. Values joined by “and” are separate entries in the source; they are usually repeats but may differ in a detail not shown here. Equal entries are not always repeated. “Also recorded” adds a separate entry of the source. Where two headings read alike, the source gives them in different places.
# Assays:
# [1] = tested on: Tibialis-anterior muscle fibers; test: Histochemical staining for succinate dehydrogenase (SDH) of tibialis-anterior muscle, quantification of oxidative fibers; format: in vivo, rat; details: for Biopsis #1 Non-oxydative fibers (pixels) / Biopsis #1 oxydative fibers (% from total pixels) / Biopsis #1 oxydative fibers (pixels) / Biopsis #2 Non-oxydative fibers (pixels) / Biopsis #2 oxydative fibers (% from total pixels) / Biopsis #2 oxydative fibers (pixels): rat tibialis-anterior, individual animals
# Description: The muscle fibers on a set of animals that were treated with the compound 1.1 at the doses of 3 or 10 mg/kg once a day for 3 weeks are analyzed. Tibialis-anterior from 3 animals per group were used for both morpho-histology analysis and molecular analysis of specific markers of mitochondrial activities. The histology analysis was preformed on cryosection followed by a histochemical staining for succinate dehydrogenase (SDH) (Luquet S. et al., FASEB J, 2003. 17(15): p. 2299-301). Two biopsies of each muscle samples were generated and analyzed.
# The quantification was performed by using Adobe Photoshop software (Lehr et al. Histochem Cytochem, 1997. 45(11): p. 1559-65, J Histochem Cytochem, 1999. 47(1): p. 119-26), and was based on pictures (in TIFF format) obtained from different slides of muscle (Tibialis-Anterior).
# For each picture identical areas of about 57000 pixels at similar magnification were selected and the surface occupied by the stained fibers was measured (FIG. 1). The results are expressed as the percentage of the area of highly-stained and moderately-stain fibers from the total area selected. The analysis is performed in a blinded fashion.
# Statistical analysis (Prism-Graphpad) was performed using unpaired T-test with: * corresponding to p<0.05 and ** to p<0.01.
# mouse PPARδ = target: T1, mouse PPARδ (Mus musculus, UniProt P35396); test: GAL4-PPAR chimera transactivation assay in CV-1 cells at 10% or 0.1% serum (Example 4); format: cell-based; details: read-out: GAL4-chimera (mouse) EC50 (μM) hPPARδ
# T1 construct: amino acids 139-440 for m; expressed in transfected cells; host or cells: CV-1
# T1 sequence (P35396 139-440): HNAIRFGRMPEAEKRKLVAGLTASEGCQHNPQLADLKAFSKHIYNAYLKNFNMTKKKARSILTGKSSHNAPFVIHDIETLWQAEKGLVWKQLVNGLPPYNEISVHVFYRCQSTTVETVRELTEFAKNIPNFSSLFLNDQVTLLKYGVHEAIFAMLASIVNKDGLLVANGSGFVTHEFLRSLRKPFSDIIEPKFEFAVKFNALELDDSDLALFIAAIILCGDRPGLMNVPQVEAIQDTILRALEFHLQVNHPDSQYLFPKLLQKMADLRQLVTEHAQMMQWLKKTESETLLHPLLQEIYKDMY
# rat PPARδ = target: T2, rat PPARδ (Rattus norvegicus, UniProt Q62879); test: as above; format: cell-based; details: read-out: GAL4-chimera (rat) EC50 (μM) hPPARδ
# T2 construct: expressed in transfected cells; host or cells: CV-1
# T2 sequence (Q62879 139-440 limits assumed): T1 sequence (P35396 139-440) with H29Q, V73I, L96P, L181I, D205V, R240Q
# Description: Assays were performed in triplicate for GAL4-chimeras. Experiments were repeated at least three times.
# The EC50 were calculated as previously described.
# The transactivation activities of the compound I.1 and GW501516 are measured in rat and mouse transactivation assays at 10% and 0.1% serum (Tables 11 and 12).
# [2] = Body weight follow-up during treatment in rats fed a high fat/medium fructose diet (WD); format: in vivo, rat; details: oral once daily
# Text: The first set of rats was undergoing an OGTT after 3 weeks of treatment (half rats/group of the clamp arm) and the second set was also undergoing an OGTT after 3 weeks of treatment (half rats/group of clamp arm) and the Histology study (3 rats/group). […] Homogenous mild obese and insulin resistant rats were allocated into the different treatment groups and western diet was continued until the end of the experiment. Given that, the 2 series started with a gap of one week Dosage regimen: Rats were treated once daily via the oral route, in the morning. The duration of the treatment was between 5 and 5.5 weeks. […], 10 mg/Kg (n=12) […] The second set of rats was weighted at 8:30 on days 17 and 21, at 1:45 pm on day 24 and at 11:10 am on day 28.
# [3] = Triglycerides content in the liver after 5 weeks of treatment in WD fed rats (enzymatic-colorimetric method); format: in vivo, rat; details: pioglitazone 10, GW501516 10, compound I.1 at any used dose
# Description: (§1) At the end of the clamp procedure (9.5 hours fasting), perirenal, retroperitoneal, epididymal and inguinal fat pads and liver weights were recorded. Blood was collected from cardiac puncture and plasmas were stored at −80° C. for further assays if needed (depending on the radioactive state of samples). Liver triglyceride content was assessed (enzymatic-colorimetric method) as well as liver and adipose tissue TNF-α content (ELISA method).
# TNF-α = TNF-α content in liver and epididymal white adipose tissue after 5 weeks of treatment in WD fed rats (ELISA); format: in vivo, rat; details: metformin 50, GW501516 10, compound I.1 10 mg/kg (alone or +metformin 50 mg/kg)
# Description: as §1
# [4] = 3 mg/kg once a day for 3 weeks, listed as COMP.I.1, 3 mg/kg
# [5] = 10 mg/kg once a day for 3 weeks
# [6] = 10 mg/kg once a day for 3 weeks, listed as COMP.I.1, 10 mg/kg
compound,measurement,setting,value
"Cc1cc(C(=O)CCc2sc(-c3ccc(C(F)(F)F)cc3)nc2C(C)C)ccc1OCC(=O)O [compound I.1, 4-[3-[4-Isopropyl-2-[4-(trifluoromethyl)phenyl]-5-thiazolyl]propionyl]-2-methylphenoxyacetic acid]",Increase of the number of oxidative fiber in tibialis muscle,"[1]; WD fed rats, SDH histology, dose not specified",about 50%
same,Biopsis #1 Non-oxydative fibers (pixels),[1]; [4],15343 pixels and 16157 pixels and 27185 pixels
same,Biopsis #1 oxydative fibers (% from total pixels),[1]; [4],73.56 % from total pixels and 72.16 % from total pixels and 51.41 % from total pixels
same,Biopsis #1 oxydative fibers (pixels),[1]; [4],42685 pixels and 41871 pixels and 28767 pixels
same,Biopsis #2 Non-oxydative fibers (pixels),[1]; [4],16208 pixels and 1109 pixels and 16402 pixels
same,Biopsis #2 oxydative fibers (% from total pixels),[1]; [4],72.07 % from total pixels and 81.01 % from total pixels and 69.92 % from total pixels
same,Biopsis #2 oxydative fibers (pixels),[1]; [4],41820 pixels and 47009 pixels and 38128 pixels
same,Biopsis #2 Non-oxydative fibers (pixels),[1]; [5],9243 pixels
same,Biopsis #2 oxydative fibers (% from total pixels),[1]; [5],83.06 % from total pixels
same,Biopsis #2 oxydative fibers (pixels),[1]; [5],45326 pixels
same,Biopsis #1 Non-oxydative fibers (pixels),[1]; [6],18992 pixels and 27170 pixels and 16958 pixels
same,Biopsis #1 oxydative fibers (% from total pixels),[1]; [6],68.84 % from total pixels and 52.66 % from total pixels and 70.78 % from total pixels
same,Biopsis #1 oxydative fibers (pixels),[1]; [6],35030 pixels and 30218 pixels and 41070 pixels
same,EC50,mouse PPARδ; 0.1% serum,0.065 ± 0.001 µM
same,EC50,mouse PPARδ; 10% serum,0.327 ± 0.07 µM
same,EC50,rat PPARδ; 0.1% serum,0.118 ± 0.031 µM
same,EC50,rat PPARδ; 10% serum,0.692 ± 0.177 µM
same,Body weight / body weight gain during treatment,[2]; compound I.1 3 mg/kg (alone or +metformin 50 mg/kg),did not affect body weight gain
same,Body weight / body weight gain during treatment,"[2]; pioglitazone 10, metformin 50, GW501516 10, compound I.1 10 mg/kg (alone or +metformin 50 mg/kg)","decreased thereafter body weight gain, until a significant effect after 4 weeks of treatment"
same,Triglycerides content in the liver,[3],did not affect; also recorded: did not significantly decrease
same,Decrease of TNF-α levels in epididymal white adipose tissues,TNF-α,51%
